Assay results taken from publication PMC11462456 (Chemical Science, 2024).

What was measured:
[1] = Parallel artificial membrane permeability assay (PAMPA); format: in vitro ADME; conditions: 10 uM, pH 7.4, four hours
Method: 4.9 Study of membrane permeability of single-ligand and dual-ligand PROTACs Parallel artificial membrane permeability assay (PAMPA) is a non-cell based assay designed to predict passive, transcellular permeability of a test compound through a PVDF membrane filter pretreated with lipid. At a given pH a log Pe (log of effective permeability) can be determined by a UV spectrophotometer. […]
is carried out in the company of Eurofins Panlabs, 6 Research Park Dr. St. Charles, MO 63304, U.S.A. The results are attached as an excel file.
Sample preparation The test compound is prepared from a 10 mM DMSO stock solution and diluted to a single final concentration of 10 uM in donor buffer. The donor solution is placed in contact with the acceptor buffer at a single pH = 7.4 with the membrane in between and the sandwich is incubated for four hours at ambient temperature.
Reference compounds Ketoprofen, propranolol and furosemide. The reference compounds yield log Pe (10-6 cm/s) values that cover the typical range of the assay from high (Propranolol), mid (Ketoprofen) to low (Furosemide) permeability.
Analytical method UV/Vis spectrophotometer
The UV absorption is measured from 250 to 500 nm for both donor and acceptor plate.
Adjustments to the method may be made as necessary to improve detection or UV spectrum.
Data analysis The amount of compound UV absorbance is determined in the donor plate prior to starting the experiment for each compound. The UV absorbance was measured from the (1 picture or pasted object on this page, not shown here) […]
donor and acceptor plate after a four hour incubation time. The log Pe was calculated using […]
4.10 Statistical Analysis.
Data analyses were performed using GraphPad Prism 9 software. The results are presented as the mean ± standard deviation (SD) or standard error of mean (SEM). All statistical analyses were evaluated with one-way analysis of variance (ANOVAs), or unpaired Student’s t-test. The difference was considered statistically significant when P < 0.05.

[2] = tested on: BRD2, BRD3, and BRD4 proteins; experiment: Western blot BET protein degradation in HEK293 cells (screen, washout kinetics, proteasome rescue); format: cell-based, human; conditions: 4 h, 0.1 μM and 1 μM
Text: 4. Biological experiments
Primary antibodies used for western blotting included anti-human BRD2(1:2000, rabbit monoclonal, Abcam, ab139690), anti-human BRD3 (1:1000, rabbit monoclonal, Abcam, ab264420), anti-human BRD4 (E2A7X) (1:1000, rabbit monoclonal, Cell Signaling Technology, #13440), anti-human VHL (1:1000, rabbit polyclonal, Cell Signaling Technology, #68547), anti-human CRBN (D8H3S) (1:1000, rabbit polyclonal, Cell Signaling Technology, #71810), anti-human alpha Tubulin, clone B-5-1-2 (1:5000, mouse monoclonal, Merck Life Science, # 32-2500).Secondary antibodies used for western blot included: anti-mouse horseradish peroxidase-linked antibody (1:3000, sheep, GE Healthcare Life Sciences, #NA931V), and anti-rabbit horseradish peroxidase-linked antibody (1:8000, donkey, GE Healthcare Life Sciences, #NA934V). Reagent for degradation assay and compounds […]
dr. Serge Van Calenbergh, Ghent University).
4.2 Cell lines and culture […]
General method of Western blot: Lysates were sonicated and centrifuged at 4 °C at 20000 g for 15 min, and the supernatants were transferred to new tubes. Protein concentration of cell lysates was measured using the DC Protein Assay kit (BIO-RAD) following manufacturer's instructions. […]
Figure S1 Dual-ligand PROTACs induce target protein degradation in A549 cells. […] Subsequently, cells were lysed and BRD2, BRD3 and BRD4 protein levels were measured by Western blot. […]

[3] = tested on: BRD2, BRD3 and BRD4; experiment: Mass spectrometry proteomics in A549 cells; format: cell-based, human; conditions: 10 nM, 4 hours, 7592 proteins quantified
Method: A549 cells in DMEM medium were seeded at 1×10^6 cells on a 6-well plate 24 h before […]
volume of DMSO. After 4 h, the cells were digested by trypsin, centrifuged at 250g for 5min and washed three times with PBS. Cells were resuspended in lysis buffer (50 mM triethylammonium bicarbonate (TEAB), 5% SDS (pH 7.5)), then sonicated, and clarified with centrifugation of 13,000g for 8 minutes. Each sample was reduced with 20 mM DTT, then warmed the solution first at 95 °C for 10 minutes and then at 60 °C for 1 hour. The reduced proteins were alkylated with 40 mM iodoacetamide (IAA) in the dark for 30 minutes. Then samples were acidified with 1.2% aqueous phosphoric acid and mixed with 6× volumes of 90% methanol, 100 mM TEAB, pH 7.1 (S-Trap binding buffer). The samples were loaded onto the (1 picture or pasted object on this page, not shown here)

| SMILES | membrane permeability [1] | degradation efficiency versus single- and trivalent PROTACs [2] | BET protein abundance change in proteome [3] |
| --- | --- | --- | --- |
| Cc1ncsc1-c1ccc(C(C)NC(=O)C2CC(O)CN2C(=O)C(NC(=O)COCCOCCNC(=O)CC(NC(=O)CCc2cn(CCOCCOCCOCCOCC(=O)NC(CC(=O)NCCOCCOCCNC(=O)CC3N=C(c4ccc(Cl)cc4)c4c(sc(C)c4C)-n4c(C)nnc43)C(=O)NCCOCCOCCNC(=O)CC3N=C(c4ccc(Cl)cc4)c4c(sc(C)c4C)-n4c(C)nnc43)nn2)C(=O)NCCOCCOCC(=O)NC(C(=O)N2CC(O)CC2C(=O)NC(C)c2ccc(-c3scnc3C)cc2)C(C)(C)C)C(C)(C)C)cc1 (stereo not shown) [2J2V] | very limited membrane permeability | superior degradation efficiency | top proteins being degraded the most |
| Cc1ncsc1-c1ccc(CNC(=O)C2CC(O)CN2C(=O)C(NC(=O)COCCOCCOCCNC(=O)CC2N=C(c3ccc(Cl)cc3)c3c(sc(C)c3C)-n3c(C)nnc32)C(C)(C)C)cc1 (stereo not shown) [MZ1, reference compound] | very limited membrane permeability | – | much lower change in BET protein abundance |
| Cc1sc2c(c1C)C(c1ccc(Cl)cc1)=N[C@@H](CC(=O)NCCOCCOCCNC(=O)C[C@H](NC(=O)COCCOCCOCCOCCn1cc(CCC(=O)N[C@@H](CC(=O)NCCOCCOCCNc3cccc4c3C(=O)N(C3CCC(=O)NC3=O)C4=O)C(=O)NCCOCCOCCNc3cccc4c3C(=O)N(C3CCC(=O)NC3=O)C4=O)nn1)C(=O)NCCOCCOCCNC(=O)C[C@@H]1N=C(c3ccc(Cl)cc3)c3c(sc(C)c3C)-n3c(C)nnc31)c1nnc(C)n1-2 (stereo partly shown) [2J2P] | high membrane permeability | superior degradation efficiency | – |
